In article PMC7844219, “Antifibrotic effect of novel neutrophil gelatinase-associated lipocalin inhibitors in cardiac and renal disease models” (Scientific Reports, 2021):

What was measured:
[1] = test system: TGFβ-treated human cardiac fibroblasts; assay: Specificity: IL6 and Col I secretion in TGFβ-treated human cardiac fibroblasts; assay type: cell-based; settings: 10 µM, Fig. S5
Description: Primary human cardiac fibroblasts (HCF) were obtained from Promocell (Heidelberg, Germany) and maintained in Fibroblast Media 3 following manufacturer’s instructions (Promocell). Cells were used between passages 5 and 7. Cells were stimulated with recombinant hNGAL (500 ng/mL, R&D Systems) or with TGFβ (10 ng/mL, R&D Systems) for 24 h. To assess cell proliferation the MTT test was used following provider’s instructions (Roche). For protein analysis. Primary Mouse Kidney Fibroblasts (MKF) were isolated from Wild Type (WT) mice. Briefly, 8 weeks old mice were sacrificed by cervical dislocation and kidneys were cleaned and rinsed in cold DPBS (Dulbecco's Phosphate-Buffered Saline). The renal cortex was minced and incubated in Dulbecco’s modified eagle medium/Nutrient mixture F-12 (DMEM/F12, Sigma) containing 1 mg/mL collagenase A (Roche) during 25 min at 37 °C. The digestion was inactivated by adding culture medium (DMEM/F12 + 10% FBS) then the cell suspension was passed through a 100-μm cell strainer. After centrifugation, the pellet (containing MKF) was diluted with culture medium then plated in 75 cm^2 culture flask. After 24 h MKF were washed with DPBS before replacement of fresh culture medium. […]
IL6 and collagen type I concentrations were measured in cardiac tissue and cell supernatants by ELISA according to the manufacturer's instructions (R&D Systems).

[2] = Aqueous solubility; assay type: physicochemical
Description: (§1) Several parameters have been evaluated to determine ADME-Tox profile of the compounds. Two specific toxicity assays have been performed to assess hepatoxicity and cardiotoxicity. Hepatotoxicity was evaluated in isolated hepatocytes from swiss mice and determined by the thiazolyl blue tetrazolium bromide colorimetric assay (sigma, St Louis, MO, USA). Cardiotoxicity was evaluated using the commercially available Predictor hERG fluorescence polarization kit (Thermo Fisher Scientific, Illinois, USA). Several absorption, distribution, metabolism, and excretion (ADME) assays have been carried out. The following experiments were undertaken: stability in human microsomes, binding to human plasma protein, and CYP3A4 inhibition assay (Vivid CYP3A4 assay, Thermo Fisher Scientific, Illinois, USA). Physico-chemical properties were also assessed such as aqueous solubility and chemical stability.

[3] = test system: isolated hepatocytes from swiss mice; assay: Hepatotoxicity, thiazolyl blue tetrazolium bromide (MTT) colorimetric assay; assay type: cell-based, mouse
Description: as §1

[4] = target: T1, hNGAL (Homo sapiens, UniProt P80188); assay: Cell proliferation (MTT) in hNGAL-treated human cardiac fibroblasts; assay type: cell-based
T1 construct: purchased R&D Systems
Description: (§2) Primary human cardiac fibroblasts (HCF) were obtained from Promocell (Heidelberg, Germany) and maintained in Fibroblast Media 3 following manufacturer’s instructions (Promocell). Cells were used between passages 5 and 7. Cells were stimulated with recombinant hNGAL (500 ng/mL, R&D Systems) or with TGFβ (10 ng/mL, R&D Systems) for 24 h. To assess cell proliferation the MTT test was used following provider’s instructions (Roche). For protein analysis. Primary Mouse Kidney Fibroblasts (MKF) were isolated from Wild Type (WT) mice. Briefly, 8 weeks old mice were sacrificed by cervical dislocation and kidneys were cleaned and rinsed in cold DPBS (Dulbecco's Phosphate-Buffered Saline). The renal cortex was minced and incubated in Dulbecco’s modified eagle medium/Nutrient mixture F-12 (DMEM/F12, Sigma) containing 1 mg/mL collagenase A (Roche) during 25 min at 37 °C. The digestion was inactivated by adding culture medium (DMEM/F12 + 10% FBS) then the cell suspension was passed through a 100-μm cell strainer. After centrifugation, the pellet (containing MKF) was diluted with culture medium then plated in 75 cm^2 culture flask. After 24 h MKF were washed with DPBS before replacement of fresh culture medium. Thereafter, culture medium was changed every 48 h. Once 70–80% confluent, MKF were trypsinized and plated in 12 or 6-well plates. For experimental use, MKF were starved with culture medium containing only 3% FBS. MKF were treated with mNGAL (500 ng/mL, R&D Systems) or with TGFβ (10 ng/mL, R&D Systems) for 6 h for gene expression analysis.
Cell proliferation was assessed using the MTT Proliferation Assay (Sigma).

[5] = target: T2, mNGAL (Mus musculus, UniProt P11672); assay: mNGAL-induced gene expression in primary mouse kidney fibroblasts (RT-PCR); assay type: cell-based
T2 construct: purchased R&D Systems
T2 sequence (P11672 21-200): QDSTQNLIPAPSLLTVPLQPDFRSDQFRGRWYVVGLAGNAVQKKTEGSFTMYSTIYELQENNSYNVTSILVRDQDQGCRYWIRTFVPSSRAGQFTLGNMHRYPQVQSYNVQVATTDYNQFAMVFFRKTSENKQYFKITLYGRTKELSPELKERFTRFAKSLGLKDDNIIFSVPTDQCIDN
Description: as §2
Frozen tissues (kidneys, heart) were homogenized in TRIzol (Life Technologies, Illinois, USA) using FastPrep beads (MP-Bio, CA, USA). cDNAs were generated using the Superscript II reverse transcriptase kit (Invitrogen,NY, USA), and qPCR was performed as previously described. Briefly, transcript levels were analysed in a CFX396 apparatus (Biorad). The reactions were performed in duplicate for each sample using the IQ SYBR Green supermix Kit (Biorad,CA, USA). […]

T1 sequence (P80188 21-198): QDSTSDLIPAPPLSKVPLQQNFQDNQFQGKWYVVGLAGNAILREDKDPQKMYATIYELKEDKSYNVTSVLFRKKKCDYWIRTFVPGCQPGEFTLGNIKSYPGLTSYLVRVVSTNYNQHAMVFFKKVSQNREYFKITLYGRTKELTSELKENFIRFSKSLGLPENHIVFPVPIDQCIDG

CC(=O)c1cccc(S(=O)(=O)NCc2ccccc2-n2cccn2)c1 [GPZ614741]
Effect on TGFβ-increased IL6 and Col I secretion [1]: no inhibitory effect | Solubility in aqueous buffers, in words [2]: perfectly soluble | Aquous solubility % ([2]; Table S5): 100% | Hepatotoxicity (MTT) [3]: > 0.1 mM | Hepatotoxicity ([3]; Table S5, MTT): > 100 µM | hNGAL-induced cell proliferation, in words ([4]; 10 µM, Fig. 1E): blocked | Dose–response on proliferation induced by NGAL ([4]; Fig. S2): able to block the proliferative effects of NGAL at 1 and 10 µM, but not at lower concentrations | NGAL-induced collagen I expression ([5]; 1 µM, mouse kidney fibroblasts, Fig. S4): prevented | mNGAL-induced expression of profibrotic markers (Col I, fibronectin, αSMA) ([5]; 10 µM, MKF, mRNA, Fig. 3A): inhibited | mNGAL-induced expression of inflammatory markers (IL6, MCP1) ([5]; 10 µM, MKF, mRNA, Fig. 3B): inhibited
